# Source: US12005127B2, “DNA-PK inhibitors” (VERTEX PHARMACEUTICALS INCORPORATED, priority 2018, dated 2024)
# pIC50: −log10 of the molar value.
# Tests used:
# DNA-PK [1] = target: T1, DNA-PK (Homo sapiens, UniProt P78527); assay: DNA-PK inhibition assay (radiometric 33P-ATP kinase assay); assay type: biochemical; conditions: competitive tight-binding fit
# Procedure: Compounds were screened for their ability to inhibit DNA-PK kinase using a standard radiometric assay. Briefly, in this kinase assay the transfer of the terminal ^33P-phosphate in ^33P-ATP to a peptide substrate is interrogated. The assay was carried out in 384-well plates to a final volume of 50 μL per well containing approximately 6 nM DNA-PK, 50 mM HEPES (pH 7.5), 10 mM MgCl2, 25 mM NaCl, 0.01% BSA, 1 mM DTT, 10 μg/mL sheared double-stranded DNA (obtained from Sigma), 0.8 mg/mL DNA-PK peptide (Glu-Pro-Pro-Leu-Ser-Gln-Glu-Ala-Phe-Ala-Asp-Leu-Trp-Lys-Lys-Lys, obtained from American Peptide), and 100 μM ATP. Accordingly, compounds of the invention were dissolved in DMSO to make 10 mM initial stock solutions. Serial dilutions in DMSO were then made to obtain the final solutions for the assay. A 0.75 μL aliquot of DMSO or inhibitor in DMSO was added to each well, followed by the addition of ATP substrate solution containing ^33P-ATP (obtained from Perkin Elmer). The reaction was started by the addition of DNA-PK, peptide and ds-DNA. After 45 min, the reaction was quenched with 25 μL of 5% phosphoric acid. The reaction mixture was transferred to MultiScreen HTS 384-well PH plates (obtained from Millipore), allowed to bind for one hour, and washed three times with 1% phosphoric acid. Following the addition of 50 μL of Ultima Gold™ high efficiency scintillant (obtained from Perkin Elmer), the samples were counted in a Packard TopCount NXT Microplate Scintillation and Luminescence Counter (Packard BioScience). The Ki values were calculated using Microsoft Excel Solver macros to fit the data to the kinetic model for competitive tight-binding inhibition. In Tables 1 and 2 below, Ki of less than 0.001 micromolar for the inhibition of DNA-PK is indicated as “A”; Ki of equal to or greater than 0.001 micromolar and less than 0.01 micromolar for the inhibition of DNA-PK as “B”; Ki of equal to or greater than 0.01 micromolar and less than 0.1 micromolar for the inhibition of DNA-PK as “C”; Ki of equal to or greater than 0.1 micromolar and less than 1 micromolar for the inhibition of DNA-PK for “D”; and Ki of equal to or greater than 1 micromolar as “E.”
# DNA-PK [2] = target: T1, DNA-PK; assay: DNA-PK cellular assay (pDNA-PK Ser2056 sandwich ELISA, NCS-induced DSBs); assay type: cell-based; design: endogenous in cells; host or cells: A549 (human NSCLC); conditions: pDNA-PK (Ser2056) in A549 cells, NCS 50 ng/ml, 15 minutes
# Excerpt: DNA-PK is recruited to and activated by double-strand breaks (DSB) in DNA and plays a critical role in the non-homologous end-joining (NHEJ) repair mechanism. Upon activation, DNA-PK undergoes rapid autophosphorylation at Ser2056. The measure of pDNA-PK (Ser2056) in response to DNA DSBs provides a cellular signaling assay to evaluate potential DNA-PK kinase inhibitors.
# Neocarzinostatin (NCS) was used as a radiomimetic to induce DNA DSBs. The sandwich ELISA used the Meso Scale Discovery electrochemiluminescence technology platform which typically provides greater sensitivity than traditional ELISA formats.
# A549 (human NSCLC) cells are plated at 25,000 cells/well in 100 uL of DMEM (Invitrogen cat #11995-040) supplemented with 1% Pen/Strep (Invitrogen cat #15070-063) and 10% FBS (Hyclone cat #SH30071.03HI) on black clear bottom 96 well plates (Costar #3904) and allowed to adhere overnight at 37° C. in 5% CO2. The following day, the compounds and NCS solutions are prepared by adding 100 ul of DMEM growth media per well in a Corning polypropylene V-bottom deep well plate (cat #3357). The HP Compound Dilution D300 instrument was used to add compounds to the appropriate wells using the setting logarithmic and 16-point titration singlet.
# The DMEM NCS solution was prepared by adding NCS to DMEM media at 200 ng/ml (final assay concentration, 50 ng/ml). 100 ul of the DMEM/NCS solution is added to the wells with the compounds. 100 ul of this solution is then immediately added to the A549 cells. The cells are then incubated for 15 minutes at 37° C.
# The complete lysis buffer is prepared by adding 1% Phosphatase inhibitor (Sigma cat #P2850) and 1% Protease Inhibitor (Sigma cat #P8340) to the Lanthascreen cellular assay lysis buffer (Invitrogen cat #PV5598). The media from the plate was removed by flicking and patting dry. 60 uL/well of the complete lysis buffer is added to each well. These plates are then incubated for at least 5 minutes in the lysis buffer at room temperature to ensure complete lysis. At this point the lysates can be transferred to prepared ELISA plates.
# The prepared ELISA plates were prepared blocking the Mesoscale Goat-Anti-Mouse (GAM) plates with 150 uL/well of 3% Blocker A (Mesoscale cat #R93-BA) for one hour at room temperature with shaking. The capture antibody is prepared by diluting the mouse monoclonal anti-total DNA-PK (AbCAM cat #ab1832) to 3 ug/mL in 1% Blocker A. The blocked plates rinsed once with 200 uL D-PBS. The capture antibody (25 ul/well) was added to each well and allowed to incubate for an hour at room temperature while shaking. This was rinsed once with 200 ul D-PBS before adding 25 uL of the prepared cell lysate from the cell plates to the Mesoscale GAM ELISA plate. The lysate is then incubated on the plates for one hour at room temperature with shaking. The detection antibody (Epitomics rabbit anti-pS2056-DNA-PK) is prepared at a 1/1000 dilution (to a final concentration of 450 ng/mL) in 1% Blocker A. The GAM plates are washed once with 200 uL of D-PBS and then 25 uL/well of the detection antibody is added to the plate. This incubates for one hour at room temperature with shaking. The Sulfotag is prepared by adding Sulfo-Tag Goat-Anti-Rabbit antibody (Mesoscale cat #R32AB-1) at a 1/500 dilution (1 ug/mL) to 1% Blocker A. The GAM plates are washed with 200 uL of D-PBS and then 25 uL of the Sulfotag preparation is added to each well. Once the plates have been incubated with the final solution, the Sulfotag, for 1 hour, they are washed once with 200 uL of D-PBS. The 1× Read Buffer (Mesoscale cat #R32-TC) is made by diluting the 4× buffer in ddH20. 150 uL of 1× buffer is added to each well of the GAM plate and then the plate is read on the Sector Imager 2400. The readout (electrochemiluminescence) was plotted against the concentration of each compound and the IC50s were generated using Prism software (GraphPad Prism version 6.0e for Macintosh). […]
Compound,"Ki (DNA-PK [1]; Table 1, 100 μM ATP) [µM]",pIC50 (DNA-PK [2]; Table 1),"Ki (DNA-PK [1]; Table 2, 100 μM ATP) [µM]",pIC50 (DNA-PK [2]; Table 2)
"O=C1c2ccccc2C(=O)N1[C@H]1CC[C@@H](Oc2cc(N3CCOCC3)cc3ncncc23)CC1 [Compound 7, 2-[4-(7-morpholinoquinazolin-5-yl)oxycyclohexyl]isoindoline-1,3-dione]",0.001 to 0.01,6.00 to 7.00,–,–
"Cc1ncc2c(O[C@H]3CC[C@@H](NC(=O)OC(C)(C)C)CC3)cc(N3CCOCC3)cc2n1 [Compound 10, tert-butyl N-[4-(2-methyl-7-morpholino-quinazolin-5-yl)oxycyclohexyl]carbamate]",0.001 to 0.01,≤ 6.00,–,–
"CNC(=O)c1ccnc(N[C@H]2CC[C@@H](Oc3cc(N4CCOCC4)cc4nc[nH]c(=O)c34)CC2)n1 [Compound 11, N-methyl-2-[[4-[(7-morpholino-4-oxo-3H-quinazolin-5-yl)oxy]cyclohexyl]amino]pyrimidine-4-carboxamide]",< 0.001,≤ 6.00,–,–
"Cc1nccc(N[C@H]2CC[C@@H](Oc3cc(N4CCOCC4)cc4nc(C)ncc34)CC2)n1 [Compound 12, 2-methyl-N-[4-(2-methyl-7-morpholino-quinazolin-5-yl)oxycyclohexyl]-pyrimidin-4-amine]",0.001 to 0.01,6.00 to 7.00,–,–
"Cc1nccc(N[C@H]2CC[C@@H](Oc3cc(N4CCOCC4)cc4ncn(C)c(=O)c34)CC2)n1 [Compound 21, 3-methyl-5-[4-[(2-methylpyrimidin-4-yl)amino]cyclohexoxy]-7-morpholino-quinazolin-4-one]",–,6.00 to 7.00,–,–
"CNC(=O)c1ccnc(N[C@H]2CC[C@@H](Oc3cc(N4CCOCC4)cc4ncn(C)c(=O)c34)CC2)n1 [Compound 25, N-methyl-2-[[4-(3-methyl-7-morpholino-4-oxo-quinazolin-5-yl)oxycyclohexyl]amino]pyrimidine-4-carboxamide]",–,6.00 to 7.00,–,–
"Cn1cnc(C(=O)N[C@H]2CC[C@@H](Oc3cc(N4CCOCC4)cc4ncncc34)CC2)c1 [Compound 26, 1-methyl-N-((1s,4s)-4-((7-morpholinoquinazolin-5-yl)oxy)cyclohexyl)-1H-imidazole-4-carboxamide]",–,6.00 to 7.00,–,–
"COc1ccc(COc2cc(N3CCOCC3)cc3ncnc(Cl)c23)cc1 [Compound 54, 4-[4-chloro-5-[(4-methoxyphenyl)methoxy]quinazolin-7-yl]morpholine]",–,–,0.01 to 0.1,–
"COc1ccc(COc2cc(N3CCOCC3)cc3ncnc(C4CC4)c23)cc1 [Compound 56, 4-[4-cyclopropyl-5-[(4-methoxyphenyl)methoxy]quinazolin-7-yl]morpholine]",–,–,–,6.00 to 7.00

# Continued, values first:
"Ki (DNA-PK [1]; Table 1, 100 μM ATP) [µM]",pIC50 (DNA-PK [2]; Table 1),"Ki (DNA-PK [1]; Table 2, 100 μM ATP) [µM]",pIC50 (DNA-PK [2]; Table 2),Compound
< 0.001,> 7.00,–,–,"Cc1nc2c(c(N[C@H]3CC[C@@H](Oc4cc(N5CCOCC5)cc5ncncc45)CC3)n1)OCC2 [Compound 1, 2-methyl-N-[4-(7-morpholinoquinazolin-5-yl)oxycyclohexyl]-6,7-dihydrofuro[3,2-d]pyrimidin-4-amine]"
< 0.001,> 7.00,–,–,"Cc1nc2c(c(N[C@H]3CC[C@@H](Oc4cc(N5CCOCC5)cc5ncnc(C#N)c45)CC3)n1)OCC2 [Compound 2, 5-[4-[(2-methyl-6,7-dihydrofuro[3,2-d]pyrimidin-4-yl)amino]cyclohexoxy]-7-morpholino-quinazoline-4-carbonitrile]"
< 0.001,> 7.00,–,–,"Cc1nccc(N[C@H]2CC[C@@H](Oc3cc(N4CCOCC4)cc4ncncc34)CC2)n1 [Compound 3, 2-methyl-N-[4-(7-morpholinoquinazolin-5-yl)oxycyclohexyl]pyrimidin-4-amine]"
< 0.001,> 7.00,–,–,"Cc1nccc(N[C@H]2CC[C@@H](Oc3cc(N4CCOCC4)cc4ncnc(C#N)c34)CC2)n1 [Compound 4, 5-[4-[(2-methylpyrimidin-4-yl)amino]cyclohexoxy]-7-morpholino-quinazoline-4-carbonitrile]"
< 0.001,> 7.00,–,–,"COc1ncnc2cc(N3CCOCC3)cc(O[C@H]3CC[C@@H](Nc4nc(C)nc5c4OCC5)CC3)c12 [Compound 5, N-[4-(4-methoxy-7-morpholino-quinazolin-5-yl)oxycyclohexyl]-2-methyl-6,7-dihydrofuro[3,2-d]pyrimidin-4-amine]"
< 0.001,> 7.00,–,–,"COc1ncnc2cc(N3CCOCC3)cc(O[C@H]3CC[C@@H](Nc4ccnc(C)n4)CC3)c12 [Compound 6, N-[4-(4-methoxy-7-morpholino-quinazolin-5-yl)oxycyclohexyl]-2-methyl-pyrimidin-4-amine]"
< 0.001,> 7.00,–,–,"CNC(=O)c1ccnc(N[C@H]2CC[C@@H](Oc3cc(N4CCOCC4)cc4ncncc34)CC2)n1 [Compound 8, N-methyl-2-[[4-(7-morpholinoquinazolin-5-yl)oxycyclohexyl]amino]pyrimidine-4-carboxamide]"
< 0.001,> 7.00,–,–,"CNC(=O)c1ccnc(N[C@H]2CC[C@@H](Oc3cc(N4CCOCC4)cc4ncnc(OC)c34)CC2)n1 [Compound 9, 2-[[4-(4-methoxy-7-morpholino-quinazolin-5-yl)oxycyclohexyl]amino]-N-methyl-pyrimidine-4-carboxamide]"
–,> 7.00,–,–,"c1cnc(O[C@H]2CC[C@@H](Oc3cc(N4CCOCC4)cc4ncncc34)CC2)nc1 [Compound 27, 4-[5-cis-(4-pyrimidin-2-yloxycyclohexoxy)quinazolin-7-yl]morpholine]"
–,> 7.00,–,–,"c1cnc(O[C@H]2CC[C@H](Oc3cc(N4CCOCC4)cc4ncncc34)CC2)nc1 [Compound 28, 4-[5-trans-(4-pyrimidin-2-yloxycyclohexoxy)quinazolin-7-yl]morpholine]"
